According to US20200113853A1, “GAMMA-HYDROXYBUTYRATE COMPOSITIONS AND THEIR USE FOR THE TREATMENT OF DISORDERS” (Jazz Pharmaceuticals Ireland Limited, priority 2017, published 2020):

How the values were obtained:
[1] = Maximum solubility of GHB as a function of pH of the aqueous medium; assay type: physicochemical
Experimental: It will be understood that the maximum solubility of GHB is affected by the pH of the aqueous medium. For example, at about pH 4, the maximum amount of Na⋅GHB that can be dissolved is about 450 mg/mL.

[2] = 2.25 g and 4.45 g doses, relative to IV administration; cited from earlier work
[3] = generally considered; Yu et al.; cited from earlier work

Row | Structure (SMILES) | minimal pH that will dissolve 750 mg/mL GHB ([1]; 750 mg/mL) | absolute bioavailability [2] | maximum amount that can be dissolved ([1]; at about pH 4, aqueous medium) | solubility class [3]
1 | O=C(O)CCCO [GHB, gamma-hydroxybutyrate] | ~6.8 | – | – | –
2 | O=C([O-])CCCO.[Na+] [sodium oxybate, sodium gamma-hydroxybutyrate] | – | 88% | about 450 mg/mL | high solubility
